Assay results from PubChem BioAssay AID192 (DTP/NCI, 2004).
Where “and” joins values, the source holds several entries; their conditions need not be identical. Equal entries are not always repeated. Toxic doses and inconclusive results are not listed. The calls were made as follows: active = survival T/C of 150% or more; inactive = T/C below 125% in these data.

System: BDF1 mice, B16 melanoma ip, median survival T/C
Test: NCI In Vivo Anticancer Drug Screen. Data for tumor model B16 Melanoma (intraperitoneal) in B6D2F1 (BDF1) mice
Details: endpoint: median survival time, higher = longer survival
Method in brief: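 Antitumor activity is assessed in mice bearing a transplanted tumor, with survival or tumor size compared against vehicle-dosed controls and expressed as T/C.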

[1] = dose: 50.0 mg/kg/injection, schedule: Q01DX009 (ip), vehicle: Klucel (hydroxypropylcellulose) (HPC)
[2] = dose: 100.0 mg/kg/injection, schedule: Q01DX009 (ip), vehicle: Klucel (hydroxypropylcellulose) (HPC)
[3] = dose: 200.0 mg/kg/injection, schedule: Q01DX009 (ip), vehicle: Klucel (hydroxypropylcellulose) (HPC)
[4] = dose: 50.0 mg/kg/injection, schedule: Q01DX009 (ip), vehicle: saline with Tween-80
[5] = dose: 100.0 mg/kg/injection, schedule: Q01DX009 (ip), vehicle: saline with Tween-80
[6] = dose: 200.0 mg/kg/injection, schedule: Q01DX009 (ip), vehicle: saline with Tween-80
[7] = dose: 12.5 mg/kg/injection, schedule: Q01DX009 (ip), vehicle: saline
[8] = dose: 25.0 mg/kg/injection, schedule: Q01DX009 (ip), vehicle: saline
[9] = dose: 50.0 mg/kg/injection, schedule: Q01DX009 (ip), vehicle: saline
[10] = dose: 100.0 mg/kg/injection, schedule: Q01DX009 (ip), vehicle: saline
[11] = dose: 200.0 mg/kg/injection, schedule: Q01DX009 (ip), vehicle: saline
[12] = dose: 400.0 mg/kg/injection, schedule: Q01DX009 (ip), vehicle: saline
[13] = dose: 6.25 mg/kg/injection, schedule: Q01DX009 (ip), vehicle: saline
[14] = dose: 12.5 mg/kg/injection, schedule: Q01DX009 (ip), vehicle: saline with Tween-80
[15] = dose: 25.0 mg/kg/injection, schedule: Q01DX009 (ip), vehicle: saline with Tween-80
[16] = dose: 25.0 mg/kg/injection, schedule: Q01DX009 (ip), vehicle: Klucel (hydroxypropylcellulose) (HPC)
[17] = dose: 6.25 mg/kg/injection, schedule: Q01DX009 (ip), vehicle: saline with Tween-80
[18] = dose: 12.5 mg/kg/injection, schedule: Q01DX009 (ip), vehicle: Klucel (hydroxypropylcellulose) (HPC)
[19] = dose: 400.0 mg/kg/injection, schedule: Q01DX009 (ip), vehicle: saline with Tween-80
[20] = dose: 400.0 mg/kg/injection, schedule: Q01DX009 (ip), vehicle: Klucel (hydroxypropylcellulose) (HPC)
[21] = dose: 6.25 mg/kg/injection, schedule: Q01DX009 (ip), vehicle: Klucel (hydroxypropylcellulose) (HPC)

Measured: T/C

CCCCCCCCCCCCCCCCCCNC(=O)CCl
inactive: [1] 93 % of control | [2] 93 % of control | [3] 86 % of control

CC(C)CC(Br)C(=O)NCC(=O)NC(Cc1ccccc1)C(=O)O (configuration not stated)
inactive: [4] 97 % of control | [5] 95 % of control | [6] 97 % of control

CNC(=O)ON(C(C)=O)C(=O)NC
inactive: [7] 87 % of control | [8] 88 % of control

C=CCc1cn(C2CC(O)C(CO)O2)c(=O)[nH]c1=O (configuration not stated)
inactive: [7] 104 % of control | [8] 105 % of control | [9] 104 % of control | [10] 105 % of control | [11] 105 % of control | [12] 107 % of control

COc1cc2cc[n+]3c(C)c4cc5c(cc4cc3c2cc1OC)OCO5 (tested in a mixture with another compound)
inactive: [13] 94 % of control | [7] 105 % of control

O=C(Nc1ccccc1C(F)(F)F)C(c1ccccc1)c1ccccc1
inactive: [14] 101 % of control | [15] 98 % of control | [4] 97 % of control

CC1C2Cc3ccc(O)cc3C1(C)CCN2CC1CC1 (configuration not stated)
inactive: [16] 100 % of control | [1] 94 % of control | [2] 95 % of control

O=C(O)CC(NC(=O)c1ccccc1)C(=O)O (configuration not stated)
inactive: [17] 100 % of control | [14] 102 % of control | [15] 109 % of control | [4] 93 % of control and 100 % of control

CCC(=O)c1ccccc1N
inactive: [2] 97 % of control | [3] 98 % of control

CCC(=O)c1ccc2c(c1)N(CCCN1CCN(CCO)CC1)c1ccccc1S2
inactive: dose: 0.25 mg/kg/injection, schedule: Q01DX009 (ip), vehicle: saline 100 % of control | dose: 0.5 mg/kg/injection, schedule: Q01DX009 (ip), vehicle: saline 95 % of control | dose: 1.0 mg/kg/injection, schedule: Q01DX009 (ip), vehicle: saline 92 % of control | dose: 2.0 mg/kg/injection, schedule: Q01DX009 (ip), vehicle: saline 89 % of control | dose: 4.0 mg/kg/injection, schedule: Q01DX009 (ip), vehicle: saline 105 % of control

CCN(CC)CCNc1ccc(C)c2sc3ccccc3c(=O)c12
inactive: dose: 6.25 mg/kg/injection, schedule: Q01DX009 (ip), vehicle: suspension in saline 103 % of control | dose: 12.5 mg/kg/injection, schedule: Q01DX009 (ip), vehicle: suspension in saline 105 % of control | dose: 25.0 mg/kg/injection, schedule: Q01DX009 (ip), vehicle: suspension in saline 103 % of control | dose: 50.0 mg/kg/injection, schedule: Q01DX009 (ip), vehicle: suspension in saline 102 % of control | dose: 100.0 mg/kg/injection, schedule: Q01DX009 (ip), vehicle: suspension in saline 120 % of control

N#CCCNC(Cc1ccc(O)cc1)C(=O)O (configuration not stated)
inactive: [18] 109 % of control | [16] 100 % of control | [1] 88 % of control | dose: 56.25 mg/kg/injection, schedule: Q04DX003 (ip), vehicle: Klucel (hydroxypropylcellulose) (HPC) 95 % of control | dose: 75.0 mg/kg/injection, schedule: Q01DX009 (ip), vehicle: Klucel (hydroxypropylcellulose) (HPC) 116 % of control | dose: 112.5 mg/kg/injection, schedule: Q04DX003 (ip), vehicle: Klucel (hydroxypropylcellulose) (HPC) 105 % of control

Cc1ccc(C(=O)CCC(=O)O)c(C)c1
inactive: [5] 90 % of control | [6] 93 % of control

CC(N)C(=O)NC(C(=O)O)C(C)O (configuration not stated)
inactive: [8] 92 % of control | [9] 100 % of control | [10] 97 % of control | [11] 102 % of control | [12] 105 % of control

O=C1c2ccccc2S(=O)c2ccccc21
inactive: [2] 97 % of control | [3] 93 % of control

CCCCCCCCP(=O)(N1CC1C)N1CC1C (configuration not stated)
inactive: dose: 3.12 mg/kg/injection, schedule: Q01DX009 (ip), vehicle: saline 101 % of control | [13] 102 % of control | [7] 97 % of control | [8] 102 % of control

CCC1(CC)CCC(Br)C(Br)C1 (configuration not stated)
inactive: [5] 95 % of control | [6] 105 % of control | [19] 102 % of control

CCOC(=O)C(OCC)P(=O)(OCC)OCC (configuration not stated)
inactive: [16] 95 % of control | [1] 95 % of control | [2] 107 % of control | [3] 102 % of control | [20] 100 % of control

C(/C=C/c1ccccc1)=Nc1ccc2c(c1)Cc1ccccc1-2
inactive: [2] 96 % of control | [3] 90 % of control | [20] 87 % of control

Cc1cccc(Nc2c(N)nc(N)nc2N)c1
inactive: [18] 101 % of control | [16] 104 % of control | [1] 106 % of control

c1ccc(-c2nnc(-c3ccccn3)nn2)nc1
inactive: [1] 103 % of control | [2] 107 % of control | [3] 97 % of control | [20] 96 % of control

O=C1CCC(=O)N1CO
inactive: dose: 37.5 mg/kg/injection, schedule: Q01DX009 (ip), vehicle: saline 107 % of control and 112 % of control | dose: 75.0 mg/kg/injection, schedule: Q01DX009 (ip), vehicle: saline 104 % of control and 107 % of control | dose: 150.0 mg/kg/injection, schedule: Q01DX009 (ip), vehicle: saline 109 % of control

CC(=O)OCC1OC(OC2=C(CC=C(C)C)C(=O)c3ccccc3C2=O)C(OC(C)=O)C(OC(C)=O)C1OC(C)=O (configuration not stated)
inactive: [21] 95 % of control and 98 % of control | [18] 87 % of control | [16] 87 % of control | [1] 88 % of control and 91 % of control | [2] 92 % of control

NC(=S)N/N=C1/c2cc(Cl)ccc2-c2c(Cl)cc(Cl)cc21
inactive: [5] 93 % of control | [6] 95 % of control | [19] 93 % of control | dose: 800.0 mg/kg/injection, schedule: Q01DX009 (ip), vehicle: saline with Tween-80 95 % of control

CCN(CC)c1nc(Cl)nc(NC(C)C)n1
inactive: [4] 95 % of control | [5] 97 % of control | [6] 89 % of control

Cc1n[nH]c2ccc([N+](=O)[O-])cc2c1=O
inactive: [17] 97 % of control | [14] 90 % of control | [15] 95 % of control

CC[C@H](CC[C@@H](C)[C@H]1CC[C@H]2[C@@H]3CC=C4C[C@@H](O)CC[C@]4(C)[C@H]3CC[C@]12C)C(C)C
inactive: [2] 91 % of control | [3] 109 % of control | [20] 94 % of control

CC(C)(C)C(=O)C1C(=O)c2ccccc2C1=O
inactive: dose: 0.06 mg/kg/injection, schedule: Q01DX009 (ip), vehicle: Klucel (hydroxypropylcellulose) (HPC) 94 % of control | dose: 0.12 mg/kg/injection, schedule: Q01DX009 (ip), vehicle: Klucel (hydroxypropylcellulose) (HPC) 97 % of control | dose: 0.25 mg/kg/injection, schedule: Q01DX009 (ip), vehicle: Klucel (hydroxypropylcellulose) (HPC) 100 % of control and 108 % of control

Cc1nc2ccc(CCN3CCN(c4ccccc4Cl)CC3)cc2[nH]1
inactive: dose: 4.12 mg/kg/injection, schedule: Q01DX009 (ip), vehicle: saline 90 % of control | dose: 8.25 mg/kg/injection, schedule: Q01DX009 (ip), vehicle: saline 92 % of control

CC(=O)OC1CCC(C2CCCCC2)CC1 (configuration not stated)
inactive: [5] 111 % of control | [6] 118 % of control

O=C(NNc1ccccc1)c1ccccc1
inactive: [21] 97 % of control | [18] 97 % of control | [16] 93 % of control | [1] 91 % of control
